Laboratory results published in US20220387430A1, “USE OF COMPOUND IN PREVENTING OR TREATING GRAFT VERSUS HOST DISEASE” (SHENZHEN CHIPSCREEN BIOSCIENCES, CO., LTD., priority 2019, published 2022).

System: GVHD model mice (BALB/c receptor mice, C57BL/6 donor mice)
Test: GVHD model induced by mouse allogeneic bone marrow transplantation
Assay type: in vivo
Conditions: for survival rate at 61 days: 61 days after allogeneic bone marrow transplantation
Source text: This study evaluates a pharmacodynamics effect of a test drug CS12192 in a GVHD model induced by mouse allogeneic bone marrow transplantation. In the GVHD model, 6-8 week old of two types of C57BL/6 (H-2b) and BALB/c (H-2d) male mice are used as donor and receptor animals respectively. Wherein, C57BL/6 mice are the donor mice, and BALB/c mice are the receptor mice.
The receptor mice are sent to an irradiation center to receive 8.5 Gry systemic irradiation on the day before transplantation, and after the irradiation, the mice are randomly divided into groups according to the body weights of the mice. On day 0, after 3-5% isoflurane pre-anesthesia, the donor mice are killed by cervical dislocation, and spleens are excised in a sterile environment, ground, and filtered by a sterile filter. Then red blood cells are digested with ammonium chloride buffer solution, lymphocytes are washed twice with RPMI 1640 culture solution, and finally resuspended in RPMI 1640 culture solution containing 10% fetal bovine serum, to prepare a lymphocyte suspension.
The receptor mice are divided into 6 groups, and each group includes 10 mice.

Structure (SMILES) | survival rate at 61 days (CS12192 40 mg/kg twice a day, p<0.0005 relative to the vehicle control) | survival rate at 61 days (CS12192 80 mg/kg twice a day, p<0.0001 relative to the vehicle control) | weight gains of the mice (CS12192 two-dose groups (40 and 80 mg/kg twice a day) versus positive drug prednisolone group and solvent control group (FIG. 2)) | survival rate at 61 days (prednisolone 20 mg/kg once a day, p<0.01 relative to the vehicle control)
C=CC(=O)N(C)c1cc(Nc2ncc(Cl)c(NCCCNC(=O)c3ccc(C#N)cc3)n2)ccc1F [CS12192] | 89% | 100% | significantly better than that of the positive drug prednisolone group | –
C[C@]12C=CC(=O)C=C1CC[C@@H]1[C@@H]2[C@@H](O)C[C@@]2(C)[C@H]1CC[C@]2(O)C(=O)CO [prednisolone, reference compound] | – | – | – | 67%
